Where a SMILES comes first, the peptide text is derived from it. Side-chain parts run from the residue outwards. [ ]: non-standard residue; d: D form. The star is where a group is joined. NMePhe(4-NH(5-NH2-Trz-3-yl)) = CN[C@@H](Cc1ccc(Nc2n[nH]c(N)n2)cc1)C(=O)O; Shikimoyl = O=C(C1=C[C@@H](O)[C@@H](O)[C@H](O)C1)*; Quinoline4carbonyl = O=C(c1ccnc2ccccc12)*; dPhe(4-Cl) = N[C@H](Cc1ccc(Cl)cc1)C(=O)O; d2Nal = N[C@H](Cc1ccc2ccccc2c1)C(=O)O; Lys(iPr) = CC(C)NCCCC[C@H](N)C(=O)O; NMeY = CN[C@@H](Cc1ccc(O)cc1)C(=O)O; d3Pal = N[C@H](Cc1cccnc1)C(=O)O; Nicotinoyl = O=C(c1cccnc1)*; X4 = Nc1nc(NCC(=O)*)n[nH]1; dOrn = NCCC[C@@H](N)C(=O)O; 2Furoyl = O=C(c1ccco1)*; X2 = O=C(c1ccoc1)*; azaGly = NNC(=O)O; βAla = NCCC(=O)O
Biological target: T1, LHRH receptor (Rattus norvegicus, UniProt P30969)
T1 construct: endogenous in cells
T1 sequence (P30969 1-327): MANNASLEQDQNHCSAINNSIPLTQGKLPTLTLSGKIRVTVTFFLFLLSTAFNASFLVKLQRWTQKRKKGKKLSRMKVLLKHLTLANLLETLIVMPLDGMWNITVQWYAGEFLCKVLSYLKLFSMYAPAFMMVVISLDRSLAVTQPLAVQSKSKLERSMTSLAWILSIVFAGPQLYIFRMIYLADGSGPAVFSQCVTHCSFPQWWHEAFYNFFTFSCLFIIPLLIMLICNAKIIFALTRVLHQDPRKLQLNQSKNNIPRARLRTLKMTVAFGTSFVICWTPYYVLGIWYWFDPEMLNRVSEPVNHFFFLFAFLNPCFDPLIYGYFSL
Assay: in vitro LHRH antagonist potency (pA2) against the agonist leuprolide
Assay type: cell-based
Conditions: negative logarithm of the antagonist concentration which shifts the response curve produced by the agonist leuprolide to two-fold higher concentration
Experimental: Representative compounds of the present invention were evaluated in in vitro tests for receptor binding (pKI) and for LHRH antagonist potency (pA2). The tests employed the methods detailed in F. Haviv, et al., J. Med. Chem., 32: 2340-2344 (1989). The receptor binding affinities (pKI) are the negative logarithms of the equilibtirum dissociation constants (pA2) are the negative logarithms of the concentration of antagonist which shift the response curve roduced by the agonist leuprolide to two-fold higher concentration. (Leuprolide is the LHRH agonist having the structure 5-oxo-Pro^1 -His^2 -Trp^3 -Ser^4 -Tyr^5 -D-Leu^6 -Leu^7 -Arg^8 -Pro^9 -NHEt and is disclosed and claimed in U.S. Pat. No. 4,005,063.) Typically pA2 values of 9.5 or greater are indicative of good LHRH antagonist potency.

Row | SMILES | Kb [nM]
1 | CC(=O)N[C@H](Cc1ccc2ccccc2c1)C(=O)N[C@H](Cc1ccc(Cl)cc1)C(=O)N[C@H](Cc1cccnc1)C(=O)N[C@@H](CO)C(=O)N(C)[C@@H](Cc1ccc(O)cc1)C(=O)N[C@H](CCCCNC(=O)[C@@H](CO)NC(=O)c1ccnc2ccccc12)C(=O)N[C@@H](CC(C)C)C(=O)N[C@@H](CCCNC(=N)N)C(=O)N1CCC[C@H]1C(=O)N[C@H](C)C(N)=O [Example 50e, NAc-D2Nal^1 -D4ClPhe^2 -D3Pal^3 -Ser^4 -NMeTyr^5 -DLys(N-epsilon-DSer-4-Quinolinyl)^6 -Leu^7 -Arg^8 -Pro^9 -DAla^10 NH2] (Ac-[d2Nal][dPhe(4-Cl)][d3Pal]S[NMeY][dK]([dS-Quinoline4carbonyl])LRP[dA]-NH2) | 0.0288
2 | CC(=O)N[C@H](Cc1ccc2ccccc2c1)C(=O)N[C@H](Cc1ccc(Cl)cc1)C(=O)N[C@H](Cc1cccnc1)C(=O)N[C@@H](CO)C(=O)N(C)[C@@H](Cc1ccc(O)cc1)C(=O)N[C@H](CCCCNC(=O)[C@@H](CO)NC(=O)c1cccnc1)C(=O)N[C@@H](CC(C)C)C(=O)N[C@@H](CCCNC(=N)N)C(=O)N1CCC[C@H]1C(=O)N[C@H](C)C(N)=O [Example 7, NAc-D2Nal^1 -D4ClPhe^2 -D3Pal^3 -Ser^4 -NMeTyr^5 -DLys(N-epsilon-DSer-Nicotinyl)^6 -Leu^7 -Arg^8 -Pro^9 -DAla^10 NH2] (Ac-[d2Nal][dPhe(4-Cl)][d3Pal]S[NMeY][dK]([dS-Nicotinoyl])LRP[dA]-NH2) | 0.00891
3 | CC(=O)N[C@H](Cc1ccc2ccccc2c1)C(=O)N[C@H](Cc1ccc(Cl)cc1)C(=O)N[C@H](Cc1cccnc1)C(=O)N[C@@H](CO)C(=O)N(C)[C@@H](Cc1ccc(O)cc1)C(=O)N[C@H](CCCNC(=O)NNC(=O)c1ccco1)C(=O)N[C@@H](CC(C)C)C(=O)N[C@@H](CCCCNC(C)C)C(=O)N1CCC[C@H]1C(=O)N[C@H](C)C(N)=O [Example 52, NAc-D2-Nal^1 -D4ClPhe^2 -D3Pal^3 -Ser^4 -NMeTyr^5 -DOrn(N-epsilon-Azagly-2-Furoyl)^6 -Leu^7 -Lys(N-epsilon-Isopropyl)^8 -Pro^9 -DAla^10 NH2] (Ac-[d2Nal][dPhe(4-Cl)][d3Pal]S[NMeY][dOrn]([azaGly-2Furoyl])L[Lys(iPr)]P[dA]-NH2) | 0.0155
4 | CC(=O)N[C@H](Cc1ccc2ccccc2c1)C(=O)N[C@H](Cc1ccc(Cl)cc1)C(=O)N[C@H](Cc1cccnc1)C(=O)N[C@@H](CO)C(=O)N(C)[C@@H](Cc1ccc(Nc2n[nH]c(N)n2)cc1)C(=O)N[C@H](CCCCNC(=O)CNc1n[nH]c(N)n1)C(=O)N[C@@H](CC(C)C)C(=O)N[C@@H](CCCCNC(C)C)C(=O)N1CCC[C@H]1C(=O)N[C@H](C)C(N)=O [Example 63, NAc-D2Nal^1 -D4ClPhe^2 -D3Pal^3 -Ser^4 -NMePhe(Atz)^5 -DLys(N-epsilon-N'-Gly-Atz)^6 -Leu^7 -Lys(N-epsilon-Isopropyl)^8 -Pro^9 -DAla^10 NH2] (Ac-[d2Nal][dPhe(4-Cl)][d3Pal]S[NMePhe(4-NH(5-NH2-Trz-3-yl))][dK](X4)L[Lys(iPr)]P[dA]-NH2) | 0.00447
5 | CC(=O)N[C@H](Cc1ccc2ccccc2c1)C(=O)N[C@H](Cc1ccc(Cl)cc1)C(=O)N[C@H](Cc1cccnc1)C(=O)N[C@@H](CO)C(=O)N(C)[C@@H](Cc1ccc(O)cc1)C(=O)N[C@H](CCCCNC(=O)[C@@H](Cc1c[nH]cn1)NC(=O)C1=C[C@@H](O)[C@@H](O)[C@H](O)C1)C(=O)N[C@@H](CC(C)C)C(=O)N[C@@H](CCCNC(=N)N)C(=O)N1CCC[C@H]1C(=O)N[C@H](C)C(N)=O [Example 38e, NAc-D2Nal^1 -D4ClPhe^2 -D3Pal^3 -Ser^4 -NMeTyr^5 -DLys(N-epsilon-DHis-Shikimyl)^6 -Leu^7 -Arg^8 -Pro^9 -DAla^10 NH2] (Ac-[d2Nal][dPhe(4-Cl)][d3Pal]S[NMeY][dK]([dH-Shikimoyl])LRP[dA]-NH2) | 0.0437
6 | CC(=O)N[C@H](Cc1ccc2ccccc2c1)C(=O)N[C@H](Cc1ccc(Cl)cc1)C(=O)N[C@H](Cc1cccnc1)C(=O)N[C@@H](CO)C(=O)N(C)[C@@H](Cc1ccc(O)cc1)C(=O)N[C@H](CCCCNC(=O)[C@H](NC(=O)C1=C[C@@H](O)[C@@H](O)[C@H](O)C1)[C@H](C)O)C(=O)N[C@@H](CC(C)C)C(=O)N[C@@H](CCCNC(=N)N)C(=O)N1CCC[C@H]1C(=O)N[C@H](C)C(N)=O [Example 38d, NAc-D2Nal^1 -D4ClPhe^2 -D3Pal^3 -Ser^4 -NMeTyr^5 -DLys(N-epsilon-DThr-Shikimyl)^6 -Leu^7 -Arg^8 -Pro^9 -DAla^10 NH2] (Ac-[d2Nal][dPhe(4-Cl)][d3Pal]S[NMeY][dK]([dT-Shikimoyl])LRP[dA]-NH2) | 0.02
7 | CC(=O)N[C@H](Cc1ccc2ccccc2c1)C(=O)N[C@H](Cc1ccc(Cl)cc1)C(=O)N[C@H](Cc1cccnc1)C(=O)N[C@@H](CO)C(=O)N(C)[C@@H](Cc1ccc(O)cc1)C(=O)N[C@H](CCCCNC(=O)CCNC(=O)CNC(=O)c1ccco1)C(=O)N[C@@H](CC(C)C)C(=O)N[C@@H](CCCCNC(C)C)C(=O)N1CCC[C@H]1C(=O)N[C@H](C)C(N)=O [Example 57c, NAc-D2Nal^1 -D4ClPhe^2 -D3Pal^3 -Ser^4 -NMeTyr^5 -DLys(N-epsilon-beta-alanyl-glycyl-furoyl)^6 -Leu^7 -Lys(Isp)^8 -Pro^9 -DAla^10 NH2] (Ac-[d2Nal][dPhe(4-Cl)][d3Pal]S[NMeY][dK]([βAla-Gly-2Furoyl])L[Lys(iPr)]P[dA]-NH2) | 0.0186
8 | CC(=O)N[C@H](Cc1ccc2ccccc2c1)C(=O)N[C@H](Cc1ccc(Cl)cc1)C(=O)N[C@H](Cc1cccnc1)C(=O)N[C@@H](CO)C(=O)N(C)[C@@H](Cc1ccc(O)cc1)C(=O)N[C@H](CCCCNC(=O)NNC(=O)c1cccnc1)C(=O)N[C@@H](CC(C)C)C(=O)N[C@@H](CCCCNC(C)C)C(=O)N1CCC[C@H]1C(=O)N[C@H](C)C(N)=O [Example 3, NAc-D2Nal^1 -D4ClPhe^2 -D3Pal^3 -Ser^4 -NMeTyr^5 -DLys(N-epsilon-Azagly-Nicotinyl)^6 -Leu^7 -Lys(N-epsilon-Isopropyl)^8 -Pro^9 -DAla^10 NH2] (Ac-[d2Nal][dPhe(4-Cl)][d3Pal]S[NMeY][dK]([azaGly-Nicotinoyl])L[Lys(iPr)]P[dA]-NH2) | 0.0049
9 | CC(=O)N[C@H](Cc1ccc2ccccc2c1)C(=O)N[C@H](Cc1ccc(Cl)cc1)C(=O)N[C@H](Cc1cccnc1)C(=O)N[C@@H](CO)C(=O)N(C)[C@@H](Cc1ccc(O)cc1)C(=O)N[C@H](CCCCNC(=O)[C@@H](CO)NC(=O)c1ccoc1)C(=O)N[C@@H](CC(C)C)C(=O)N[C@@H](CCCNC(=N)N)C(=O)N1CCC[C@H]1C(=O)N[C@H](C)C(N)=O [Example 65b, NAc-D2Nal^1 -D4ClPhe^2 -D3Pal^3 -Ser^4 -NMeTyr^5 -DLys(N-epsilon-DSer-3Furoyl)^6 -Leu^7 -Arg^8 -Pro^9 -DAla^10 NH2] (Ac-[d2Nal][dPhe(4-Cl)][d3Pal]S[NMeY][dK]([dS-X2])LRP[dA]-NH2) | 0.00229
10 | CC(=O)N[C@H](Cc1ccc2ccccc2c1)C(=O)N[C@H](Cc1ccc(Cl)cc1)C(=O)N[C@H](Cc1cccnc1)C(=O)N[C@@H](CO)C(=O)N(C)[C@@H](Cc1ccc(O)cc1)C(=O)N[C@H](CCCCNC(=O)CNC(=O)C1=C[C@@H](O)[C@@H](O)[C@H](O)C1)C(=O)N[C@@H](CC(C)C)C(=O)N[C@@H](CCCCNC(C)C)C(=O)N1CCC[C@H]1C(=O)N[C@H](C)C(N)=O [Example 6b, NAc-D2Nal^1 -D4ClPhe^2 -D3Pal^3 -Ser^4 -NMeTyr^5 -DLys(N-epsilon-Gly-Shikimyl)^6 -Leu^7 -Lys(N-epsilon-Isopropyl)^8 -Pro^9 -DAla^10 NH2] (Ac-[d2Nal][dPhe(4-Cl)][d3Pal]S[NMeY][dK]([Gly-Shikimoyl])L[Lys(iPr)]P[dA]-NH2) | 0.024

— patent publication US5698522A, “6-position modified decapeptide LHRH antagonists” (Abbott Laboratories, priority 1995, dated 1997)
